Values of other authors in patent US20090035369A1, “Composition and Methods for Treating and Preventing Age-Related Macular Degeneration” (priority 2006, published 2009).

Legend:
[1] = pure DIM
[2] = pure DIM; remark: listed apart in the source
neovascularization = conditions: rodent model

solubility [1]: insoluble | absorption by the human body [2]: poorly absorbed
Compound: c1ccc2c(Cc3c[nH]c4ccccc34)c[nH]c2c1 [DIM, 3,3′-diindolylmethane]
inhibition of neovascularization (neovascularization): up to 76%
